Laboratory results published in patent publication US11407725B2 (The Board of Trustees of the University of Illinois, priority 2018, dated 2022).

What was measured:
ALDH1A3 = target: T1, ALDH1A3 (Homo sapiens, UniProt P47895); assay: ALDH isoform selectivity of red probes: ALDH1A3; type: biochemical
T1 construct: made in house
T1 sequence (P47895 1-512): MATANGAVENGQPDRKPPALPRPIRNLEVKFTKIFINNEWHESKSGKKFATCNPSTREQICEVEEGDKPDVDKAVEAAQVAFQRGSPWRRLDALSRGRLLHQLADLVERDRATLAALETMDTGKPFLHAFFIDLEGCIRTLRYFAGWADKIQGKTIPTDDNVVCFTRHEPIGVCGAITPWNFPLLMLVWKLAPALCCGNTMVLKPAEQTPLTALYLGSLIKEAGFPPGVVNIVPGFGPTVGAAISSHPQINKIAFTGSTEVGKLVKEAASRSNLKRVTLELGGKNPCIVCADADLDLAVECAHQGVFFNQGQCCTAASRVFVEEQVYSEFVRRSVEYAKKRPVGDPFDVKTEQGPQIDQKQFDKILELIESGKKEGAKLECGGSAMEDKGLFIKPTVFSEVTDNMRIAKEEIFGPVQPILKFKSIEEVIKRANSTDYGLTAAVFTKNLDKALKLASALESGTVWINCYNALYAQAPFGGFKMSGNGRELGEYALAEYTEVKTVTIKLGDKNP
Protocol: Each ALDH isoform was added to a 50 mM triethanolamine solution (pH 7.4) containing 2.0 mM NAD^+ and 100 μM substrate at room temperature. Benzaldehyde was the substrate for ALDH3A1. Propanal was the substrate for all other isoforms. ALDH isoform activity was determined by monitoring the rate of NADH production through the increase in absorbance at 340 nm (ε=6220 M^−1cm^−1). For these assays, 1 unit is defined as the amount of enzyme that catalyzes the conversion of […] per minute. For every combination of dye and enzyme, 2 μM dye was preincubated with 2.0 mM NAD^+ in 50 mM triethanolamine solution (pH 7.4). The reaction was initiated by addition of 1 unit of ALDH. Dyes were excited at 590 nm, and fluorescence was measured continuously at 610 nm.

A549 cells = assay: Flow cytometry of A549 cells with red-AlDeSense; type: cell-based
Protocol: For all cell lines, 200,000 cells in a single-cell suspension were transferred into 1.5 mL Eppendorf tubes. Cells were pelleted by centrifugation at 400 g for 5 minutes at room temperature. After removing the supernatant by aspiration, cells were resuspended in 300 μL premixed PBS supplemented with verapamil, probenecid, and novobiocin. […] Samples were immediately stored on ice. Cells were stained with red-AlDeSense or Ctrl-red-AlDeSense (100 μL of 4 μM dye solution; dyes were normalized by fluorescence spectroscopy). Samples were analyzed on a BD LSR II Flow Cytometry Analyzer using a 488 nm laser and a 550 LP and 610/30 filter set. Samples were analyzed every 5 minutes for 15 minutes, with the samples being placed back on ice between data collection. Data were analyzed on FCS Express 6.04.

K562 cells = assay: Flow cytometry of K562 cells stained with AlDeSense; type: cell-based, human
Protocol: K562 cells were resuspended in PBS to a final concentration of 100,000 cells/mL. The suspension was divided into 0.5 mL aliquots and the cells were collected by centrifugation at 1000 rpm for 5 min at 4° C. Each sample was then resuspended in premixed AlDeSense AM or Ctrl-AlDeSense AM solutions (1.5 μM, PBS). For each dye, triplicate samples were prepared. Cells were incubated with dye for 30 minutes at room temperature with rocking to prevent cell clumping and ensure even dye distribution. At the end of the incubation period, cells were again collected by centrifugation at 1000 rpm for 5 min at 4° C. The dye solution was removed by aspiration, and each sample of cells were resuspended in 0.5 mL of PBS. The samples were immediately placed on ice until analysis. The samples were analyzed by a BD LSR II Flow Cytometry Analyzer using a 488 nm laser and a FITC filter. Data analyzed on FCS Express 6.04.
The day before imaging, Nunc™ Lab-Tek™ Chamber Slide™ systems (Thermo Fisher) were coated with poly-L-lysine (Trevigen) according to manufacturer's instructions. Cells were added to the chamber slides at a concentration of 400,000 cells/mL, yielding 90% confluent cells after 24 h. […] Images were analyzed using ImageJ software (Version 1.5 in).

[1] = pKa determination (pH profile of fluorescence); conditions: 40 mM Britton-Robinson buffer
Protocol: (§1) The fluorescence of 1 μM of each compound was measured in 40 mM Britton-Robinson buffer at pH 2-9 in 0.5 pH intervals. Each measurement was performed in triplicate. […] Error bars are ±standard deviation (SD).

Protocol for physchem: as §1

Compound: Cc1cc(C=O)c(F)c(F)c1C1=C2C=CC(=O)C=C2[Si](C)(C)c2cc(O)ccc21
- selectivity ALDH1A1 versus ALDH1A3 (ALDH1A3): selective for ALDH1A1 over ALDH1A3
- Enzyme Activity 1A3 (ALDH1A3; Table 2): Low
- pKa (physchem): 6.68
- extent of red-AlDeSense activation with DEAB (A549 cells; A549 cells, plus 20 μM DEAB): 67.8±3.4%
- A549 cells displaying high ALDH1A1 activity (A549 cells; flow cytometry, 1 μM dye): 78.1±0.3%

Compound: Cc1cc(C=O)ccc1-c1c2cc(F)c(=O)cc-2oc2cc(O)c(F)cc12 [AlDeSense]
- brightness of stained K562 cells versus AlDeSense with inhibitor or Ctrl-AlDeSense (K562 cells): significantly brighter
- pKa [1]: 4.81
